Source: patent US20130011347A1, “Personal Care Compositions With Improved Solubility of a Solid Cosmetic Active” (priority 2011, published 2013)

Assays:
[1] = Solvency of solvents for (S)-Equol (visual solubility after storage); settings: solute (S)-Equol, 6% test solution, approximately 1:16 solute to solvent ratio, soluble = no visible crystals
Procedure: (§1) In the testing provided below, “soluble” (or “solubilize”), in relation to the solubility of a solid solute being tested, means that no visible crystals may be seen after a prescribed storage period at a storage condition. The storage period can vary. Suitable storage periods include about 24 hours, about 1 week, and about 30 days. Suitable storage conditions include ambient conditions or cold storage at 5° C. (approximately 1 atm). In certain embodiments, solubility may be determined after a 24 hour storage period at ambient conditions. In other embodiments, solubility may be determined after 20 days in cold storage. Other testing parameters may include storage for prolonged time periods (e.g., 30 day, 50 days, 60 days, 90 days) and at variable temperatures (e.g., 5° C., 50° C.).
(§2) The solvency of an isosorbide diester within the scope of the present invention was tested against two conventional, industry standard solvents. […] A test solution was of 6% Equol is prepared with heating to 70° C. Upon reaching 70° C., the examples may be mixed for about 10 minutes. Place mixtures in a covered vial and cool to the storage temperature. Solubility is evaluated for samples stored 24 hours at ambient conditions. Solubility is also evaluated for samples stored for 7 day at 5° C. followed by equilibration to ambient conditions.

[2] = Solvency of solvents for hexylresorcinol (visual solubility after storage); settings: solute hexylresorcinol, 33.5% test solution, approximately 1:2 solute to solvent ratio, soluble = no visible crystals
Procedure: as §1
as §2, with “solution” for “solution was”, “33.5% hexylresorcinol” for “6% Equol”

[3] = Solvency of solvents for tetrahydrocurcuminoids (THC) (visual solubility after storage); settings: solute tetrahydrocurcuminoids (THC), 3% test solution, approximately 1:32 solute to solvent ratio, soluble = no visible crystals
[4] = then equilibration to ambient conditions

CCCCCCCCCCCC(=O)N(C)CC(=O)OC(C)C [Isopropyl lauroyl sarcosinate, isopropyl lauroyl sarcosinate]
Soluble: Solubility, 24 hour rest at Ambient Conditions ([1]; prepared at 70° C.) | Solubility, 7 day storage at 5° C. [1, 4] | Solubility, 24 hour rest at Ambient Conditions ([2]; prepared at 70° C.) | Solubility, 7 day storage at 5° C. [2, 4] | Solubility, 24 hour rest at Ambient Conditions ([3]; prepared at 70° C.) | Solubility, 7 day storage at 5° C. [3, 4]
